From patent US20100120700A1, “METHODS AND COMPOSITIONS FOR TREATING CERVICAL CANCER” (priority 2000, published 2010)
Values joined by “and” are separate entries in the source; they are usually repeats but may differ in a detail not shown here. Equal entries are not always repeated.

What was measured:
Assay in all cases: G assay PDZ-PL binding
DLG1 domain 1 = biological target: T1, DLG1 domain 1 (Homo sapiens, UniProt Q12959, R278Q); details: vs GST only well, peptide 10 uM, protein 5
T1 construct: made in house; host or cells: E. coli (DH5alpha, BL21 or JM109)
Summary of the method: (§1)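 Plate ELISA: anti-GST antibody coat, BSA block, then GST/PDZ fusion (GST alone as negative control). Biotinylated PL peptide 20 uM (10 uM in G′ variant) added, 10 min 4 °C plus 20 min 25 °C; streptavidin-HRP, TMB, absorbance 450 nm.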

Densin domain 1 = biological target: T2, Densin domain 1 (Homo sapiens, UniProt Q96NW7); details: peptide 10 uM, protein 5
T2 construct: made in house; host or cells: E. coli (DH5alpha or BL-21)
T2 sequence (Q96NW7 1429-1537): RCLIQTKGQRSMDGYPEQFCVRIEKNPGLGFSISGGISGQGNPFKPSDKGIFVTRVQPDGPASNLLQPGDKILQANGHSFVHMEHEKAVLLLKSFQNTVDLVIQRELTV
Summary of the method: as §1

ELFIN 1 domain 1 = biological target: T3, ELFIN 1 domain 1 (Homo sapiens, UniProt O00151, G21R); details: peptide 10 uM, protein 5
T3 construct: made in house; host or cells: E. coli (DH5alpha, BL21 or JM109), vector pGEX-3X
T3 sequence (O00151 2-93 G21R): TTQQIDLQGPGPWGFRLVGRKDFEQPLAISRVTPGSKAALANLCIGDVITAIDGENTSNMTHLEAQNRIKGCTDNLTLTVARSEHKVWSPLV
Summary of the method: as §1

KIAA0147 domain 1 = biological target: T4, KIAA0147 domain 1 (Homo sapiens, UniProt Q14160); details: A450 nm, peptide 10 uM, protein 5
T4 construct: made in house; host or cells: E. coli (DH5alpha, BL21 or JM109)
T4 sequence (Q14160 with tags, fused parts or gaps): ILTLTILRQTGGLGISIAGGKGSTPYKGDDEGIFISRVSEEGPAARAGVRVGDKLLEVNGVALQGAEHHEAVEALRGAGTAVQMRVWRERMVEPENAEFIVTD
Summary of the method: as §1

MUPP1 domain 10 = biological target: T5, MUPP1 domain 10 (Homo sapiens, UniProt O75970); details: peptide 10 uM, protein 5
T5 construct: made in house; host or cells: E. coli (DH5alpha or BL-21)
T5 sequence (O75970 with tags, fused parts or gaps): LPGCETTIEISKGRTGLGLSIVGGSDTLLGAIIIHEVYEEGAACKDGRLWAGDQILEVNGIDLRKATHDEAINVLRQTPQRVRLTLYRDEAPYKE
Summary of the method: as §1

SITAC-18 domain 1 = biological target: T6, SITAC-18 domain 1 (Homo sapiens, UniProt Q9H190); details: peptide 10 uM, protein 5
T6 construct: made in house; host or cells: E. coli (DH5alpha or BL-21)
T6 sequence (Q9H190 104-195): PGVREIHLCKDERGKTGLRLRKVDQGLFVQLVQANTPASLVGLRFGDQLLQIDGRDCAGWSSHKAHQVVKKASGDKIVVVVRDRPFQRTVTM
Summary of the method: as §1

TAX IP 2 domain 1 = biological target: T7, TAX IP 2 domain 1 (Homo sapiens, UniProt O14908); details: peptide 10 uM, protein 5
T7 construct: made in house; host or cells: E. coli (DH5alpha, BL21 or JM109)
T7 sequence (O14908 131-216): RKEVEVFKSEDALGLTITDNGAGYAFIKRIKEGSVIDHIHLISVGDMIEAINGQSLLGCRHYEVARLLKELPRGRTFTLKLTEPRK
Summary of the method: as §1

AF6 domain 1 = biological target: T8, AF6 domain 1 (Homo sapiens, UniProt P55196); details: peptide 10 uM, protein 5
T8 construct: made in house; host or cells: E. coli (DH5alpha or BL-21)
T8 sequence (P55196 1001-1093): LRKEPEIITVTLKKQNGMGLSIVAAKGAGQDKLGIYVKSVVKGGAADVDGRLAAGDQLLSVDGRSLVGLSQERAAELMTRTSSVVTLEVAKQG

Substance: 20 mer peptide corresponding to the C-terminus of HPV16 E6 (PDZ ligand), biotinylated in binding assays; ends SSRTRRETQL (SEQ ID NO: 13) [HPV E6 #16]
- OD S/N (DLG1 domain 1): 2.98 and 4.18
- Ave OD (Densin domain 1; A450 nm): 0.4205 and 0.3505
- OD S/N (Densin domain 1; vs GST only well): 1.96 and 1.82
- Ave OD (ELFIN 1 domain 1; A450 nm): 0.66
- OD S/N (ELFIN 1 domain 1; vs GST only well): 3.39
- Ave OD (KIAA0147 domain 1): 2.1465 and 3.764
- Ave OD (MUPP1 domain 10; A450 nm): 0.3925 and 0.3915
- OD S/N (MUPP1 domain 10; vs GST only well): 2.03 and 1.96
- Ave OD (SITAC-18 domain 1; A450 nm): 0.3975
- OD S/N (SITAC-18 domain 1; vs GST only well): 1.63
- Ave OD (TAX IP 2 domain 1; A450 nm): 0.5085 and 0.478
- OD S/N (TAX IP 2 domain 1; vs GST only well): 2.37 and 2.48
- Ave OD (AF6 domain 1; A450 nm): 0.444
- OD S/N (AF6 domain 1; vs GST only well): 1.80
